Test results from US11077090B2, “Compounds and compositions and uses thereof” (Sunovion Pharmaceuticals Inc., priority 2016, dated 2021).

Tests used:
Format in all cases: in vivo
compound-treated mice = assay: Neuropharmacological assay (SmartCube): behavioral activity signature and minimal effective dose; details: for AD: ADHD (probability of activity signature) / AG: analgesic (probability of activity signature) / AX: anxiolytic (probability of activity signature) / CE: cognitive enhancer (probability of activity signature) / DP: anti-depressant (probability of activity signature) / MS: mood stabilizer (probability of activity signature) / PS: anti-psychotic (probability of activity signature) / SD: sedative hypnotic (probability of activity signature) / UN: uncharacterized CNS activity (probability of activity signature): i.p. 15 min before test, most efficacious dose(s)
How it was run: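 Video-recorded behavior is compared algorithmically against a reference-compound database, yielding class probabilities (best dose reported). Compounds given i.p. in NMP/PEG/propylene glycol 15 min pre-test at 3 doses; potency as MED, the dose (mpk, range usually 0.3–30) reaching ≥50% total activity.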

Male C57Bl/6J mice [1] = assay: Marble burying test; parameters: key: −: No reduction in number of marbles buried; +: Significant reduction in number of marbles buried (P < 0.05 vs vehicle)
How it was run: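 Mice (n=10/group) dosed i.p. or p.o. with compound or water 30 min before a 30-min session in cages with twenty marbles; marbles at least two-thirds covered scored buried. Distance traveled tracked by overhead camera for locomotion; fewer marbles buried than vehicle indicates anxiolytic-like effect.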

Male C57Bl/6J mice [2] = assay: Amphetamine induced hyperlocomotion assay; parameters: key: #: Significant increase in total distance traveled (P < 0.05 vs vehicle + AMPH group); −: No change in total distance traveled; Significant decrease in total distance traveled (P < 0.05 vs vehicle + AMPH group)
Experimental: Psychostimulants such as amphetamine (AMPH) are frequently used to induce or mimic a manic-like or psychotic-like state. AMPH administration to rodents increases horizontal locomotion, vertical rearing and repetitive stereotyped behaviors, and typical antipsychotic drugs, such as haloperidol, can reduce these behaviors. The antimanic/antipsychotic-like effects of test compounds were evaluated in male C57Bl/6J mice from Jackson Laboratories Mice were acclimatized to the experimental room for at least 1 hour prior to testing. The mice (n=10 per group) were administered vehicle or test compound orally by gavage (10 mL/kg injection volume) and placed individually in the novel open field (OF) chambers (Med Associates) for 30 minutes of baseline activity measurement. Mice were then injected with either water or AMPH (4 mg/kg, i.p., 10 mL/kg) and placed back in the same individual OF chambers for a 60-minute testing session during which the effects of test compounds on stimulant-induced behaviors (total distance traveled, rearing and stereotypy) were measured. A reduction in total distance traveled relative to the vehicle+AMPH condition indicates an antimanic/antipsychotic drug-like response.

[3] = MED = dose having 50% or more total activity

SMILES	Potency: minimal effective dose (MED) (compound-treated mice; [3])	AD: ADHD (probability of activity signature) (compound-treated mice)	AG: analgesic (probability of activity signature) (compound-treated mice)	AX: anxiolytic (probability of activity signature) (compound-treated mice)	CE: cognitive enhancer (probability of activity signature) (compound-treated mice)	DP: anti-depressant (probability of activity signature) (compound-treated mice)	MS: mood stabilizer (probability of activity signature) (compound-treated mice)	PS: anti-psychotic (probability of activity signature) (compound-treated mice)	SD: sedative hypnotic (probability of activity signature) (compound-treated mice)	UN: uncharacterized CNS activity (probability of activity signature) (compound-treated mice)	Marbles Buried (Male C57Bl/6J mice [1]; 10 mg/kg (p.o.))	Marbles Buried (Male C57Bl/6J mice [1]; 30 mg/kg (p.o.))	Total Distance Traveled (Male C57Bl/6J mice [2]; 10 mg/kg PO Compound + AMPH)	Total Distance Traveled (Male C57Bl/6J mice [2]; 30 mg/kg PO Compound + AMPH)	Marbles Buried (Male C57Bl/6J mice [1]; 3 mg/kg (p.o.))	minimal effective dose (compound-treated mice; Mus musculus, ip, MED = dose having 50% or more total activity, read-out: Potency: minimal effective dose (MED))	Total Distance Traveled (Male C57Bl/6J mice [2]; 3 mg/kg PO Compound + AMPH)
Cc1ccc2c(c1)[C@H](N)COC2 [Example 123]	A (≤3 mpk)	+ (LOQ ≤ + <5%)	++ (5% ≤ ++ <25%)	++ (5% ≤ ++ <25%)	+ (LOQ ≤ + <5%)	++ (5% ≤ ++ <25%)	+ (LOQ ≤ + <5%)	++ (5% ≤ ++ <25%)	++ (5% ≤ ++ <25%)	+++ (25% ≤ +++ <50%)	+	+	−	+			
N[C@H]1COCc2ccc(F)cc21 (single isomer, unassigned) [Example 114]	C (>10 to ≤30 mpk)	+ (LOQ ≤ + <5%)	++ (5% ≤ ++ <25%)	++ (5% ≤ ++ <25%)	++ (5% ≤ ++ <25%)	++ (5% ≤ ++ <25%)	+ (LOQ ≤ + <5%)	++ (5% ≤ ++ <25%)	+ (LOQ ≤ + <5%)	+++ (25% ≤ +++ <50%)	+	+	−	+	+		
Cc1ccc2c(c1)[C@@H](N)COC2 [Example 124]	B (>3 to 10 mpk)	+ (LOQ ≤ + <5%)	++ (5% ≤ ++ <25%)	+++ (25% ≤ +++ <50%)	++ (5% ≤ ++ <25%)	++ (5% ≤ ++ <25%)	+ (LOQ ≤ + <5%)	++ (5% ≤ ++ <25%)	++ (5% ≤ ++ <25%)	+++ (25% ≤ +++ <50%)	+	+	−	+			
N[C@@H]1COCc2ccccc21 (single isomer, unassigned) [Example 111]		+ (LOQ ≤ + <5%)	++ (5% ≤ ++ <25%)	++ (5% ≤ ++ <25%)	++ (5% ≤ ++ <25%)	++ (5% ≤ ++ <25%)	+ (LOQ ≤ + <5%)	++ (5% ≤ ++ <25%)	+ (LOQ ≤ + <5%)	+++ (25% ≤ +++ <50%)	+	+	−	+	−	3 to 10 mg/kg	#
N[C@H]1COCc2ccc3ccccc3c21 (single isomer, unassigned) [Example 118]	B (>3 to 10 mpk)	+ (LOQ ≤ + <5%)	++ (5% ≤ ++ <25%)	++ (5% ≤ ++ <25%)	++ (5% ≤ ++ <25%)	+++ (25% ≤ +++ <50%)	+ (LOQ ≤ + <5%)	++ (5% ≤ ++ <25%)	++ (5% ≤ ++ <25%)	+ (LOQ ≤ + <5%)	+	+	−	+			
N[C@@H]1COCc2ccc3ccccc3c21 (single isomer, unassigned) [Example 117]	B (>3 to 10 mpk)	+ (LOQ ≤ + <5%)	++ (5% ≤ ++ <25%)	++ (5% ≤ ++ <25%)	++ (5% ≤ ++ <25%)	++ (5% ≤ ++ <25%)	++ (5% ≤ ++ <25%)	+++ (25% ≤ +++ <50%)	+ (LOQ ≤ + <5%)	+ (LOQ ≤ + <5%)	+	+	−	+	+		
